Laboratory results: patent US8524635B2, “Antifungal composition” (DSM IP Assets B.V., priority 2006, dated 2013)

Tests used:
Fusarium oxysporum = settings: bulbs dipped two hours at 43.5° C.; Dekker and Langerak (1979); cited from earlier work
Helminthosporium solani = experiment: Seed-potatoes naturally contaminated with silver scurf, sprayed and stored; mould growth and sporulation; type: in vivo
Method: Freshly harvested seed-potatoes naturally contaminated with silver scurf were selected for this experiment. The seed-potatoes were treated with the compositions described in Table 4. All compositions contained 0.1% (v/v) of the sticking agent Prolong® (Holland Fyto, The Netherlands) and the surfactant Zipper® (Asepta BV, The Netherlands) in a concentration of 1 ml/l. Said compositions were sprayed on the seed-potatoes using well-known methods after which the seed-potatoes were stored under standard conditions. For each composition 9×25 seed-potatoes were used; of each composition one triple set of seed-potatoes (3×25) was judged visually on mould growth after 1 month of storage (t=1), after 3 months of storage (t=3) and after 6 months of storage (t=6). The mould growth is reported as increase of surface covered with moulds (in percentage). In addition the sporulation of the moulds on the seed-potatoes was examined and scored on a scale from 0 to 4 (0=no sporulation; 4=high sporulation).

[1] = system: Fusarium oxysporum f. sp. tulipae CBS116591 and Fusarium oxysporum f. sp. tulipae Tu467; experiment: Tulip bulbs (Prominence) inoculated with mould spores, treated, planted in pots; infection scored at full bloom; type: in vivo; settings: for % of bulbs infected: average of 60 bulbs, control 100
Method: (§1) In this example tulip bulbs of the variety Prominence were treated with a 1:1 mixture of spores of the pathogenic moulds Fusarium oxysporum f. sp. tulipae CBS116591 and Fusarium oxysporum f. sp. tulipae Tu467 by submersing the bulbs for 30 minutes in a suspension containing 50.000-100.000 spores per ml. The mould spores were obtained using well-known methods. It should be noticed that in this challenge test the effect of the compositions was tested under very severe circumstances, because a very high number of mould spores was used. In real practise, the disease pressure will be less severe.
(§2) After the inoculation with mould spores the bulbs were dried following well-known methods. 40-60 minutes after drying the bulbs were treated with the different compositions described in Table 1. The compositions were prepared according to the instructions described on the label. All compositions contained 0.1% (v/v) of the sticking agent Prolong® (Holland Fyto, The Netherlands) and the surfactant Zipper® (Asepta BV, The Netherlands) in a concentration of 1 ml/l. Subsequently, the bulbs were planted in soil in pots (10 bulbs per pot) and incubated under well known standard conditions for growing tulips.
The bulbs were examined for mould infection when the flowers were at full bloom. For each incubation the average observation of 60 bulbs is given. Statistical analysis was performed after an ASIN transformation. The LSD at P=5% was 6.50.

most fungi = settings: for most fungi; cited from earlier work
[2] = system: Fusarium oxysporum f. sp. tulipae CBS116591 and Fusarium oxysporum f. sp. tulipae Tu467; experiment: Tulip bulb treatment as in Example 1, infected bulbs scored and grouped by ANOVA; type: in vivo; settings: control 90.0, LSD at P=5% 6.50
Method: as §1, §2
This example describes the results of an experiment performed as described in Example 1. Just as in the experiment performed in Example 1, the pH of all solutions was adjusted to 5.7 with KOH or K2CO3 which results in a mixture of two phosphites, KH2PO3 and K2HPO3.
The results obtained with a composition comprising 25% of a standard cocktail which is generally applied in practice are included. This standard cocktail contains the commercial products 0.5% (v/v) Captan (546 gram active ingredient per liter), 0.3% (v/v) Prochloraz (450 g/l) and 1% (v/v) Topsin M (500 g/l). The number of infected bulbs was scored and grouped using the well-known statistical method ANOVA (LSD at P=5% was 6.50).

Fusarium mould = settings: Example 11 of WO 2004/067699; cited from earlier work
[3] = cited from earlier work
[4] = system: Fusarium oxysporum f. sp. tulipae CBS 116593; experiment: Wounded tulip bulbs infected after harvest, treated and stored 15 days at 24° C., visual mould growth; type: in vivo; settings: 15 days storage; for Amount of non-infected bulbs (in %): control 40; for Amount of bulbs with visible moulds (in %): control 60
From the text: In this experiment tulip bulbs of the variety Prominence were infected just after harvesting with a spore suspension of Fusarium oxysporum f. sp. tulipae CBS 116593 and treated with the antifungal compositions presented in Table 3. This time, the bulbs were not planted but stored. In this experiment the efficacy of the antifungal composition during the storage of the bulbs was studied.
After harvesting, the outer dry skin of the bulbs was removed and the bulbs were disinfected by applying a treatment with 4% (v/v) Glorix® for 5 minutes. The bulbs were dried and a lesion of a few millimeters was made in the surface of the bulb using a knife. The wound was infected with 15 μl of a spore suspension of Fusarium oxysporum f. sp. tulipae; this way approximately 10.000 mould spores infected the wound after which the bulbs were treated with 30 μl of the compositions described in Table 3. Twenty bulbs were treated per composition. In one experiment the treatment with the antifungal composition was applied 12 hours after infection. The bulbs were incubated for 15 days at a temperature of 24° C. after which the bulbs were examined visually on mould growth.

Compound: C[C@@H]1C/C=C/C=C/C=C/C=C/[C@H](O[C@@H]2O[C@H](C)[C@@H](O)[C@H](N)[C@@H]2O)C[C@@H]2O[C@](O)(C[C@@H](O)C[C@H]3O[C@@H]3/C=C/C(=O)O1)C[C@H](O)[C@H]2C(=O)O [natamycin]
- preventing the spread of Fusarium oxysporum in the water baths (in words) (Fusarium oxysporum): as effective as organic mercury or formalin
- Increase in percentage of the surface of seed-potatoes covered with mould (Helminthosporium solani; natamycin 2000 ppm, t = 1 (1 month of storage), water control 3.8): 1.5%
- Sporulation of silver scurf moulds on seed potatoes (Helminthosporium solani; natamycin 2000 ppm, t = 1, scale 0 to 4, water control 2.7): 0.8
- Increase in percentage of the surface of seed-potatoes covered with mould (Helminthosporium solani; natamycin 2000 ppm, t = 3 (3 months of storage), water control 3.4): 3.0%
- Sporulation of silver scurf moulds on seed potatoes (Helminthosporium solani; natamycin 2000 ppm, t = 3, scale 0 to 4, water control 1.8): 1.1
- Increase in percentage of the surface of seed-potatoes covered with mould (Helminthosporium solani; natamycin 2000 ppm, t = 6 (6 months of storage), water control 7.8): 3.8%
- Sporulation of silver scurf moulds on seed potatoes (Helminthosporium solani; natamycin 2000 ppm, t = 6, scale 0 to 4, water control 2.4): 1.8
- Increase in percentage of the surface of seed-potatoes covered with mould (Helminthosporium solani; natamycin 5000 ppm, t = 1 (1 month of storage), water control 3.8): 0.8%
- Sporulation of silver scurf moulds on seed potatoes (Helminthosporium solani; natamycin 5000 ppm, t = 1, scale 0 to 4, water control 2.7): 0.6
- Increase in percentage of the surface of seed-potatoes covered with mould (Helminthosporium solani; natamycin 5000 ppm, t = 3 (3 months of storage), water control 3.4): 2.6%
- Sporulation of silver scurf moulds on seed potatoes (Helminthosporium solani; natamycin 5000 ppm, t = 3, scale 0 to 4, water control 1.8): 1.2
- Increase in percentage of the surface of seed-potatoes covered with mould (Helminthosporium solani; natamycin 5000 ppm, t = 6 (6 months of storage), water control 7.8): 3.5%
- Sporulation of silver scurf moulds on seed potatoes (Helminthosporium solani; natamycin 5000 ppm, t = 6, scale 0 to 4, water control 2.4): 0.7
- % of bulbs infected ([1]; natamycin 0.2 g/l): 88%
- % of bulbs infected ([1]; natamycin 0.5 g/l): 90%
- MIC (Minimal Inhibitory Concentration) (most fungi): less than 10 ppm
- Score (mould infection of tulip bulbs) ([2]; 200 ppm natamycin): 76.0
- Score (mould infection of tulip bulbs) ([2]; 500 ppm natamycin): 75.0
- yellow mould spots on leaves growing from treated tulip bulbs (in words) (Fusarium mould): some yellow spots
- solubility in water [3]: 30-50 ppm
- Amount of non-infected bulbs (in %) ([4]; 500 ppm natamycin): 60%
- Amount of bulbs with visible moulds (in %) ([4]; 500 ppm natamycin): 40%

Compound: copper lignosulphonate
- effect on mould infection of tulip bulbs (in words) ([1]; conclusion from Table 1): did not lead to reduction of moulds
- % of bulbs infected ([1]; copper lignosulphonate 2 g/l): 97%

Compound: potassium phosphite
- Increase in percentage of the surface of seed-potatoes covered with mould (Helminthosporium solani; phosphite 120 mM, t = 1 (1 month of storage), water control 3.8): 2.5%
- Sporulation of silver scurf moulds on seed potatoes (Helminthosporium solani; phosphite 120 mM, t = 1, scale 0 to 4 (0=no sporulation; 4=high sporulation), water control 2.7): 1.3
- Increase in percentage of the surface of seed-potatoes covered with mould (Helminthosporium solani; phosphite 120 mM, t = 3 (3 months of storage), water control 3.4): 4.0%
- Sporulation of silver scurf moulds on seed potatoes (Helminthosporium solani; phosphite 120 mM, t = 3, scale 0 to 4, water control 1.8): 1.0
- Increase in percentage of the surface of seed-potatoes covered with mould (Helminthosporium solani; phosphite 120 mM, t = 6 (6 months of storage), water control 7.8): 6.9%
- Sporulation of silver scurf moulds on seed potatoes (Helminthosporium solani; phosphite 120 mM, t = 6, scale 0 to 4, water control 2.4): 1.3
- % of bulbs infected ([1]; potassium phosphite 20 g/l): 87%
- Score (mould infection of tulip bulbs) ([2]; 120 mM phosphite, pH 5.7): 72.9
- Amount of non-infected bulbs (in %) ([4]; 120 mM phosphite): 50%
- Amount of bulbs with visible moulds (in %) ([4]; 120 mM phosphite): 50%
